Measured values published in patent publication US11439619B2, “Phosphaplatin compounds as immuno-modulatory agents and therapeutic uses thereof” (Phosplatin Therapeutics Inc., priority 2017, dated 2022).

Tests used:
[1] = test system: live tumor cells; assay: vaccination experiment with live tumor cell challenge; format: in vivo, mice; settings: vaccine from agent-killed cells
Protocol: FIG. 4 illustrates the survival advantage conferred when different vaccines are given to mice before being challenged with a live tumor cell injection. Vaccines are composed of dead and dying cancer cells of the same cell line exposed to different anti-cancer agents, killed by exposure to different agents.
The “gold standard” for ICD validation is a vaccine experiment, where mice are injected with dead cell material generated by exposing cells to an anticancer agent. Importantly, the anti-cancer agent is removed, and the mice are only injected with the dead and dying cells. Subsequently, after 1-2 weeks, mice are then challenged with an injection of live tumor cells of the same type used to create the vaccine.
This vaccination experiment was conducted using four different treatment groups, one unvaccinated negative control, and three receiving vaccines from the use of different agents: cisplatin (a negative control, non-ICD inducer), mitoxantrone (a positive control ICD inducer), and PT-112 (the experimental arm) (FIG. 4). The vast majority of mice (80-90%) in both negative control groups developed tumors rapidly (within one week).

[2] = renal function and tolerability in rats; format: in vivo
[3] = test system: nucleotide excision repair (NER)-deficient HCT116 cells and their isogenic NER-proficient counterparts; assay: potency in NER-deficient versus NER-proficient HCT116 cells; format: cell-based
From the text: (§1) A high degree of correlation was observed between cis and carbo activity, but not between those agents and PT-112. A correlation between PT-112 and oxali was also observed, which led to investigation of cellular targets and mechanisms not shared by these two agents. […] These effects comprise the release of HMGB1 and ATP, the cell surface exposure of calreticulin (CRT), and the suppression of STATS.

[4] = test system: murine TSA cells; assay: ATP release from TSA cells, luminometric assay; format: cell-based; settings: 48 hours, two concentrations
Protocol: FIG. 3 illustrates the release of adenosine triphosphate (ATP) from cells treated with PT-112. ATP in the media of cells after 48 hours of drug treatment was measured via a luminometric assay. PT-112 was tested in two concentrations, as was cisplatin (a negative control for ICD), in addition to a single concentration of mitoxantrone (a positive ICD control) and an untreated negative control sample. ATP release is indicative of ICD and involved in recruitment and activation of antigen-presenting cells.
PT-112 was also tested for its ability to release the DAMP ATP (FIG. 3), which is involved in the recruitment and activation of antigen-presenting cells. Here, murine TSA cells were exposed to either PT-112 at two different concentrations, cisplatin (a negative control for ICD, also at two concentrations), mitoxantrone (a positive ICD control), or no drug control for 48 hours. Subsequently, ATP in the media was measured via a luminometric assay. […] This is again indicative of PT-112 robustly causing ICD.

[5] = test system: GXF97 gastric patient-derived xenograft; assay: GXF97 gastric patient-derived xenograft (PDX) model; format: in vivo; settings: higher doses not tolerated by all mice, data not shown
[6] = test system: CT26 cells; assay: FACS analysis of tumor tissue, CT26 allograft; format: in vivo, mice
From the text: FIG. 6 illustrates fluorescence-activated cell sorting (FACS) analysis of tumor biopsies from a mouse allograft experiment, whereby immune-competent mice were implanted with CT26 cells and were subsequently randomized into control, PT-112, anti-PD-L antibody, or combination treatment. Bars are normalized to the control group.
FIG. 7 illustrates the effect of various treatments on the ratios of different cell populations from tumor biopsies in a mouse allograft experiment using the CT26 cell line, where mice were randomized into vehicle control, PT-112, anti-PD-L antibody, and combination treatment groups. PT-112 treatment groups had large increases in the ratio of immunogenic to immunosuppressive cell types, indicating PT-112 induces a more immunogenic tumor microenvironment.
Additionally, tumor tissue was removed from additional treated mice and analyzed via FACS for differences in white blood cell populations.

[7] = test system: MC38 cells; assay: FACS analysis of tumor tissue, MC38 allograft; format: in vivo, mice
From the text: FIG. 8 illustrates fluorescence-activated cell sorting (FACS) analysis of tumor biopsies from a mouse allograft experiment, whereby immune-competent mice were implanted with MC38 cells and were subsequently randomized into control, PT-112, anti-PD-L1 antibody, or combination treatment. Bars are normalized to the control group.
FIG. 9 illustrates the effect of various treatments on the ratios of different cell populations from tumor biopsies in a mouse allograft experiment using the MC38 cell line, where mice were randomized into vehicle control, PT-112, anti-PD-L1 antibody, and combination treatment groups. […]
To better understand the effects of the different treatments on T cell populations, additional immuno-competent mice were implanted with MC38 cells and were subsequently randomized into control, PT-112, anti-PD-L1 antibody, or combination treatment arms (n=5). After 2 weeks of treatment (PT-112 @ 90 mg/kg QW and PD-L1 @ 10 mg/kg BIW), tumor tissue was removed and analyzed via FACS for differences in white blood cell populations. […]
Not all white blood cell populations are immunogenic. […] To better understand if the changes observed would have a net immunogenic or immunosuppressive effect, ratios of different cell populations were calculated (FIG. 9).

[8] = test system: HCT116 colon cancer model; assay: phosphorylation of H2AX and induction of Ku70 in HCT116 colon cancer model; format: cell-based; settings: versus oxali at equipotent concentrations
From the text: as §1

[9] = mouse model of acute neurotoxicity (cold hypersensitivity); format: in vivo; settings: single dose, PT-112 at twice the molar concentration of oxali
[10] = test system: cancer cell models; assay: Pt accumulation in DNA and whole cell extracts of cancer cell models; format: cell-based; settings: previous work; compared with cisplatin or oxaliplatin exposure
From the text: PT-112 is a new chemical entity under clinical development in the US and the People's Republic of China, designed to minimize particular toxicities associated with traditional platinum agents and drug resistance stemming from DNA damage and repair. As a pyrophosphate-conjugated Pt-containing anti-neoplastic therapeutic, PT-112 differs from platinum therapies in both mechanism and toxicity. […] Nonetheless, PT-112 has potent cytotoxic activity in in vitro systems, implying a different spectrum of targets for PT-112 in comparison to traditional platinum compounds. We explored the activity and mechanism of action of PT-112 by investigating impacts on cancer related proteins and pathways, including those connected to immunogenic cell death (ICD), as well as how PT-112 potency is affected by DNA repair pathways. In addition, PT-112 anticancer activity, pharmacokinetics (PK), and toxicity were measured in multiple in vivo systems.

[11] = test system: broadly platinum-resistant cell panel; assay: IC50 values in a broadly platinum-resistant cell panel; format: cell-based
From the text: as §1

[12] = test system: HCT116 colorectal cancer cell line; assay: HMGB1 release from HCT116 cells, ELISA; format: cell-based; settings: HCT116, IC50 concentrations, 48 hours
Protocol: FIG. 1 illustrates the release of high mobility group box 1 (HMGB1) from cells treated with PT-112. HMGB1 in the media of cells after 48 hours of drug treatment was measured via ELISA. HMGB1 release is involved in ICD and antigen presentation to dendritic cells. Error bars indicate 1 SEM, and p values were generated using two-tailed t-tests.
(§2) Two such DAMPs are high mobility group box 1 (HMGB1) and calreticulin (CRT). HMGB1 is released from dying cells during ICD, whereas CRT migrates from the endoplasmic reticulum to the cell surface during ICD. To test if PT-112 exposure results in these events that are considered hallmarks of ICD, in vitro experiments using the HCT116 colorectal cancer cell line were conducted.
Subsequently, HMGB1 in the media of the cells was measured via ELISA.

[13] = chronic neuropathy indicators after repeat doses over 4 weeks (DRG Pt, NCV); format: in vivo
[14] = test system: HCT116 colorectal cancer cell line; assay: calreticulin (CRT) cell surface exposure in HCT116 cells, flow cytometry; format: cell-based; settings: HCT116, IC50 concentrations, 48 hours
Protocol: FIG. 2 illustrates the cell surface exposure of calreticulin (CRT) from cells treated with PT-112. CRT cell surface expression was measured via flow cytometry after 48 hours of drug treatment. A peak present to the right of the main peak indicates cells staining positive for CRT, a hallmark of ICD and an indicator of phagocyte targeting.
as §2
Cells were then stained with an anti-CRT antibody, and positive staining was detected via flow cytometry.

[15] = parameters: species or system rats; settings: rat, in vivo
From the text: Importantly, Pt in plasma, but not present in the PUF, is believed to be protein-bound and not bioavailable for therapeutic benefit.

[16] = test system: PANC1 pancreatic cancer model; assay: PANC1 pancreatic cancer model; format: in vivo
[17] = test system: CXF280 colon PDX; assay: CXF280 colon PDX model; format: in vivo
[18] = test system: p53 and MDM2; assay: impact on p53 and MDM2 levels; format: cell-based
From the text: as §1

[19] = test system: immunogenic cell death (ICD); assay: effects indicative of ICD induction versus oxali; format: cell-based; settings: compared with oxali
From the text: as §1

[20] = data from the literature; cited from earlier work

N.N.[Cl][Pt][Cl] [cisplatin, reference compound]
mice that developed tumors ([1]; within one week): 80-90% | effects on renal function (creatinine, BUN and GFR) ([2]; rat, in vivo): caused morbidity | potency difference between NER-deficient and NER-proficient HCT116 cells [3]: NER-competent cells were less sensitive

O=P1(O)OP(=O)(O)[O][Pt]2([NH][C@@H]3CCCC[C@H]3[NH]2)[O]1 (stereo partly drawn) [PT-112, trans-(R,R)-1,2-cyclohexanediamine(pyrophosphato) platinum(II)]
release of ATP into the media [4]: robust release of ATP | response at higher doses [5]: Cases of complete response were observed | changes in cytotoxic T cell (CD8+) and helper T cell (CD4+) populations in tumor [6]: large changes | ratio of immunogenic to immunosuppressive T cell populations [6]: favorable changes | changes in white blood cell populations incl. cytotoxic T cells (CD8+) and helper T cells (CD4+) in tumor ([7]; MC38, 2 weeks, PT-112 90 mg/kg QW, PD-L1 10 mg/kg BIW, FACS): large changes | ratios of helper T cells and cytotoxic T cells to regulatory T cells ([7]; MC38, FACS): positive effects | effect on induction of Ku70 [8]: minimal effect | effect on the phosphorylation of H2AX [8]: minimal effect | cold hypersensitivity [9]: indistinguishable from untreated controls | Pt accumulation in DNA and whole cell extracts [10]: significantly less Pt accumulation | IC50 values compared with cis, carbo and oxali [11]: superior to cis, carboplatin (carbo), and oxali in a majority of cell lines | HMGB1 release into the media [12]: significantly higher | accumulation of Pt in dorsal root ganglia (DRG) nerve tissue [13]: minimal accumulation | nerve conduction velocity (NCV) [13]: no significant loss | anti-CRT antibody staining (cell surface CRT) [14]: greater effect | fraction of Pt in the plasma ultrafiltrate (PUF) relative to total plasma Pt [15]: 72.8% | stability in plasma (parent by LC-MS/MS) [15]: stability of PT-112 in plasma | tumor growth [16]: Sustained tumor growth delay | tumor growth [17]: Sustained tumor growth delay | tolerated concentration relative to cis ([2]; rats): 7 fold | effects on renal function (creatinine, BUN and GFR) ([2]; rats, PT-112 at 7-fold higher concentrations than cis): minimal effects | potency difference between NER-deficient and NER-proficient HCT116 cells [3]: did not differ significantly | impact on p53 and MDM2 levels [18]: noteworthy impact | effects indicative of ICD induction (release of HMGB1 and ATP, cell surface exposure of CRT, suppression of STATS) [19]: significantly greater extent than oxali

O=C1c2c(O)ccc(O)c2C(=O)c2c(NCCNCCO)ccc(NCCNCCO)c21 [mitoxantrone]
mice remaining tumor free ([1]; PT-112 group for over one month): 40%

O=C1[O][Pt]2([NH][C@@H]3CCCC[C@H]3[NH]2)[O]C1=O [oxaliplatin, reference compound]
HMGB1 release into the media [12]: elevated levels of HMGB1 in the media versus untreated control cells | nerve conduction velocity (NCV) [13]: dose-dependent declines | anti-CRT antibody staining (cell surface CRT) [14]: enhanced staining relative to control | fraction of Pt in the plasma ultrafiltrate (PUF) [20]: 28.2%
